# Patent US20240124389A1, “COMPOUND OR SALT THEREOF, LIPID PARTICLES, AND PHARMACEUTICAL COMPOSITION” (FUJIFILM Corporation, priority 2021, published 2024)
# Columns and labels:
# [1] = tested on: EPO mRNA; test: mRNA encapsulation rate of EPO mRNA-encapsulating lipid particles; format: physicochemical
# Protocol: (§1) The compounds described in Table 1, the neutral lipid, cholesterol (product name: Cholesterol HP; NIPPON FINE CHEMICAL CO., LTD.), and 1,2-dimyristoyl-rac-glycero-3-(methylpolyoxyethylene 2000) (hereinafter, called DMG-PEG2000) (product name: SUNBRIGHT® GM-020; NOF corporation) were dissolved in ethanol at a molar ratio in Table 1 such that the total lipid concentration became 20 mmol/L, thereby obtaining an oil phase.
# (§2) As the neutral lipid, 1,2-distearoyl-sn-glycero-3-phosphocholine (product name: COATSOME® MC-8080; NOF corporation) (hereinafter, DSPC), or L-α-dioleoyl phosphatidylethanolamine (Hereinafter, DOPE) (product name: COATSOME® ME-8181; NOF corporation), or 1,2-dioleoyl-sn-glycero-3-phosphocholine (hereinafter, DOPC) (product name: COATSOME® MC-8181; NOF corporation) was used.
# (§3) EPO mRNA (product name: CleanCap EPO mRNA (5moU); TriLink) was diluted with 50 mmol/L citrate buffer having a pH 4 such that the weight ratio of total lipid concentration to mRNA concentration is about 16:1 to 64:1, thereby obtaining a water phase. Then, the water phase and the oil phase were mixed together using NanoAssemblr (Precision NanoSystems) such that the volume ratio of water phase:oil phase was 3:1, and the mixed solution was 1.5-fold diluted with phosphate buffered saline (PBS), thereby obtaining a dispersion liquid of mRNA lipid particles. The dispersion liquid was dialyzed with a 10% aqueous sucrose solution using a dialysis cassette (Slide-A-Lyzer G2, MWCO: 10 kD, Thermo Fisher Scientific) to remove ethanol, thereby obtaining EPO mRNA-encapsulating lipid particles.
# 15 to 30 μL of a 3 mol/L aqueous sodium acetate solution and 4.5 to 9 μL of glycogen were added to 30 to 60 μL of the lipid particles retaining mRNA, and 0.75 to 1.5 mL of ethanol was added thereto, so that only the nucleic acids were precipitated while the lipid was dissolved. Then, the supernatant was removed by centrifugation. The precipitates were air-dried for 15 minutes or longer, then water was added thereto to redissolve the precipitates, and the concentration thereof was measured using Nanodrop NF1000 (Thermo Fisher Scientific), thereby quantifying the total mRNA concentration.
# The mRNA concentration was quantified using a Quant-iT RiboGreen RNA Assay Kit (Thermo Fisher Scientific) according to the protocol. First, a 20×TE buffer included in the above-described kit was diluted with water, thereby obtaining a 1×TE buffer. TE represents Tris/EDTA (ethylenediaminetetraacetic acid). In order to quantify only mRNA in the outer water phase, the dispersion liquid of lipid particles retaining mRNA was 10,000-fold diluted with the 1×TE buffer. 100 μL of the 10,000-fold diluted dispersion liquid of lipid particles was put into a 96-well plate, then 100 μL of a RiboGreen reagent (reagent included in the Quanti-iT Ribogreen RNA Assay Kit described above) 2,000-fold diluted with the 1×TE buffer was added to a sample, and fluorescence (excitation wavelength: 485 nm, fluorescence wavelength: 535 nm) was measured using a plate reader Infinite F200 (TECAN), thereby quantifying the mRNA concentration in the outer water phase.
# By using the quantification results of the total mRNA concentration and the mRNA concentration in the outer water phase that were obtained through the above steps, the mRNA encapsulation rate of the mRNA lipid particles was calculated according to the following Equation.
# mRNA encapsulation rate (%)=(total mRNA concentration-mRNA concentration in outer water phase)/total mRNA concentration×100
# [2] = Particle size of EPO mRNA-encapsulating lipid particles; format: physicochemical
# Protocol: as §1, §2, §3
# The particle size of the mRNA-encapsulating lipid particles was measured by 10-fold diluting the dispersion liquid of lipid particle with phosphate buffered saline (PBS) using Zeta-potential & Particle size Analyzer ELS-Z2 (Otsuka Electronics Co., Ltd.).
# [3] = tested on: human EPO; test: Measurement of EPO enzyme activity (EPO protein in blood plasma of mice after intravenous administration of EPO mRNA lipid particles); format: in vivo; conditions: C57BL/6J mice, tail-vein i.v., mRNA 0.1 mg/kg, plasma 20 to 24 hours
# Protocol: as §1, §2, §3
# The dispersion liquid of mRNA lipid particles prepared in above-described <Preparation of EPO mRNA-encapsulating lipid particles> was tail-vein intravenously administered to C57BL/6J mice at a mRNA dosage of 0.1 mg/kg. 20 to 24 hours after the administration, blood was collected from the caudal vena cava, thereby obtaining blood plasma. The human EPO enzyme activity was quantified by using the obtained blood plasma and ab119522 Erythropoietin (EPO) Human Elisa Kit (Abcam.plc). The quantitative value is described as a relative amount of EPO protein in a case where Comparative Example 1 is 1.
# [4] = aminolipid 50 / DOPE 10 / cholesterol 38.5 / DMG-PEG2000 1.5 mol %, lipid/nucleic acid 64 wt/wt
# [5] = aminolipid 45 / DOPE 10 / cholesterol 43.5 / DMG-PEG2000 1.5 mol %, lipid/nucleic acid 64 wt/wt
# [6] = aminolipid 50 / DSPC 10 / cholesterol 38.5 / DMG-PEG2000 1.5 mol %, lipid/nucleic acid 20 wt/wt
SMILES,"Nucleic acid encapsulation rate [1, 4]","Particle size [2, 4]","Relative amount of EPO protein (with respect to Comparative Example 1) [3, 4]",further results
"CCCCCCC(CCCC)COC(=O)CCCCCCCCC(CCCCCC)OC(=O)OCCN(CCCN(CC)CC)CCOC(=O)OC(CCCCCC)CCCCCCCCC(=O)OCC(CCCC)CCCCCC (stereo not drawn) [Example 3, Bis(2-butyloctyl) 16-(3-(diethylamino)propyl)-10,22-dihexyl-12,20-dioxo-11,13,19,21-tetraoxa-16-azahentriaco ntanedioate]",97.8%,81.2 nm,1.92,–
CCCCCCCCOC(=O)CCCC(CCCC(=O)OCCCCCCCC)OC(=O)OCCN(CCOC(=O)OC(CCCC(=O)OCCCCCC)CCCC(=O)OCCCCCC)CCN(CC)CC [Example 42],–,–,–,"Nucleic acid encapsulation rate [1, 5]: 98.9%; Particle size [2, 5]: 128.2 nm; Relative amount of EPO protein (with respect to Comparative Example 1) [3, 5]: 4.28"
"CCCCC/C=C\C/C=C\CCCCCCCCC(CCCCCCCC/C=C\C/C=C\CCCCC)OC(=O)CCCN(C)C [Comparative Example 1, reference compound]",–,–,–,"Nucleic acid encapsulation rate [1, 6]: 93.4%; Particle size [2, 6]: 89.0 nm; Relative amount of EPO protein (with respect to Comparative Example 1) [3, 6]: 1"
"CCCCCCC(CCCC(=O)OCC(CCCCC)CCCCC)OC(=O)OCCN(CCCCN(CC)CC)CCOC(=O)OC(CCCCCC)CCCC(=O)OCC(CCCCC)CCCCC (stereo not drawn) [Example 14, Bis(2-pentylheptyl) 11-(4-(diethylamino)butyl)-5,17-dihexyl-7,15-dioxo-6,8,14,16-tetraoxa-11-azahenicosanedioate]",98.8%,75.9 nm,3.85,–
"CCCCCCC(CCC(=O)OCC(CCCCC)CCCCC)OC(=O)OCCN(CCOC(=O)OC(CCCCCC)CCC(=O)OCC(CCCCC)CCCCC)CCN(CC)CC (stereo not drawn) [Example 17, Bis(2-pentylheptyl) 10-(2-(diethylamino)ethyl)-4,16-dihexyl-6,14-dioxo-5,7,13,15-tetraoxa-10-azanonadecanedioate]",96.9%,81.7 nm,2.93,–
"CCCCCCC(CCCC(=O)OCC(CCCCC)CCCCC)OC(=O)OCCN(CCOC(=O)OC(CCCCCC)CCCC(=O)OCC(CCCCC)CCCCC)CCN(CC)CC (stereo not drawn) [Example 10, bis(2-pentylheptyl) 11-(2-(diethylamino)ethyl)-5,17-dihexyl-7,15-dioxo-6,8,14,16-tetraoxa-11-azahenicosanedioate]",100.0%,88.0 nm,2.39,–

# Further lines, with some results ahead:
"Nucleic acid encapsulation rate [1, 4]","Particle size [2, 4]",SMILES,"Relative amount of EPO protein (with respect to Comparative Example 1) [3, 4]",further results
97.9%,80.6 nm,"CCCCCCCC(CCCC(=O)OCC(CCCCC)CCCCC)OC(=O)OCCN(CCOC(=O)OC(CCCCCCC)CCCC(=O)OCC(CCCCC)CCCCC)CCN(CC)CC (stereo not drawn) [Example 24, Bis(2-pentylheptyl) 11-(2-(diethylamino)ethyl)-5,17-diheptyl-7,15-dioxo-6,8,14,16-tetraoxa-11-azahenicosanedioate]",1.46,–
95.5%,165.3 nm,"CCCCCCOC(=O)CCCC(CCCC(=O)OCCCCCC)OC(=O)OCCN(CCOC(=O)OC(CCCC(=O)OCCCCCC)CCCC(=O)OCCCCCC)CCN(CC)CC [Example 32, Dihexyl 11-(2-(diethylamino)ethyl)-5,17-bis(4-(hexyloxy)-4-oxobutyl)-7,15-dioxo-6,8,14,16-tetraoxa-11-azahenicosanedioate]",4.03,–
100.0%,99.2 nm,"CCCCCCCCCOC(=O)CCCC(CCCC(=O)OCCCCCCCCC)OC(=O)OCCN(CCOC(=O)OC(CCCC(=O)OCCCCCCCCC)CCCC(=O)OCCCCCCCCC)CCN(CC)CC [Example 34, Dinonyl 11-(2-(diethylamino)ethyl)-5,17-bis(4-(nonyloxy)-4-oxobutyl)-7,15-dioxo-6,8,14,16-tetraoxa-11-azahenicosanedioate]",1.20,–
